# In article PMC10714399, “Open Source Antibiotics: Simple Diarylimidazoles Are Potent against Methicillin-Resistant Staphylococcus aureus” (ACS Infectious Diseases, 2023):
# Experiments:
# [1] = HEK293 toxicity, 96-well dose-response (UCL; MTT or resazurin, with or without recovery); format: cell-based, human; conditions: human, HEK293 cells; across protocol variations (recovery yes/no, MTT/resazurin); read-out: CC50 HEK293
# Experimental: The importance of balancing potency vs MRSA and cytotoxicity led us to examine a subset of compounds more thoroughly for toxicity against human embryonic kidney cell line HEK293. […] Dmax is a parameter that quantifies toxicity at the highest tested concentration (32 μg/mL for all compounds), calculated as reciprocal percentage of viable cells (100 – viability%), where cells either were allowed to recover or viability was measured immediately after treatment. […] Our efforts focused on trying to replicate the original toxicity experiments (by CO-ADD) with tamoxifen using a protocol modified for use with 96-well plates. Given the variability of protocols and results in the literature,[28] it was important to compare with a standard protocol we have reliably used in our own laboratories.[29]−[33] […] Truly “non-toxic” compounds might be expected to show Dmax < 50% for all experiment variations, e.g., 861. […] A large spread of Dmax values comparing recovery and non-recovery conditions larger than 20% is perhaps indicative of a mechanism of toxicity that persists beyond exposure, i.e., cytotoxic compounds that continue to induce toxicity as cells recover and restart dividing, for example, compounds 865, 870, 871, 980, and 981. […] This variability could be driven by interference of the compounds with the fluorescence readout or resorufin build-up as previously described.[27]
# HEK293 cells (ATCC, UK) at passage 32 were a kind gift from Dr. Ben Allsop from the Translational Research Office at University College London. Cells were tested for mycoplasma using a MycoAlert Detection Kit (Lonza, Switzerland) as per manufacturer instructions, frozen stocks were stored in liquid nitrogen, and cells were re-tested whenever a new aliquot was thawed.
# Cells were maintained in DMEM (Sigma-Aldrich, UK) supplemented with 10% heat-inactivated FBS (Sigma-Aldrich, UK), 1% GlutaMax (ThermoFisher, UK), and 1% sodium pyruvate (Lonza, UK) without antibiotics in an incubator at 37 °C and 5% CO2. Media was changed every 2 days, and cells were passaged every 3–4 days at a subcultivation ratio of 1:10, by detaching the cells with phenol-free TrypLE Express (ThermoFisher, UK), after washing with HBSS Ca^2+/Mg^2+ (ThermoFisher, UK). Up to 55 passages were used throughout the experiments.
# (a) Cell seeding: At subculture, a dilute solution of cells was counted using Trypan Blue (Sigma-Aldrich, UK) and a hemocytometer. Cells were further diluted to 7000 or 50 000 cells/mL for experiments.
# For recovery experiments, 700 cells (100 μL) were seeded in 96-well plates and incubated for 48 h while cells reached exponential phase.
# For non-recovery experiments, 5000 cells (100 μL) were seeded in 96-well plates and incubated for 48 h while cells reached confluence. This is the same number of cells as per the CO-ADD protocol where 384-well plates were used, but we extended the growth time to 48 h to produce a similar confluency.
# Stock solutions were diluted 100 times (to 1% DMSO) to 32 μg/mL in full medium (vortexed briefly) and then serially diluted using a digital pipet (Explorer, Eppendorf, Germany) at a dilution factor of 2 to a final concentration of […].
# (c) Dosing experiments: At the specified time after seeding, media was removed from cells, cells were washed with HBSS Ca^2+/Mg^2+ (100 μL), and 100 μL of diluted compounds were added as per Supporting Information - Biology, Figure S4, and incubated for 24 h.
# After treatment, solutions were removed, and cells were washed with HBSS Ca^2+/Mg^2+. For non-recovery experiments, viability was determined immediately as described below.
# For recovery experiments, fresh media was added to plates (100 μL) and cells were returned to the incubator for another 72 h, after which viability was recorded as described below.
# i. MTT assay: 3-[4,5-Dimethylthiazol-2-yl]-2,5-diphenyltetrazolium bromide (MTT) (Sigma-Aldrich, UK) was dissolved in sterile PBS at 5 mg/mL with sonication (20 min), protected from light. […]
# in vitro = format: cell-based; conditions: human
# Experimental: HEK293 cells were counted manually in a Neubauer haemocytometer and then plated in the 384-well plates containing the compounds to give a density of 5000 cells/well in a final volume of 50 µL. DMEM supplemented with 10% FBS was used as growth media and the cells were incubated together with the compounds for 20 h at 37 °C in 5% CO2.
# Cytotoxicity (or cell viability) was measured by fluorescence, ex: 560/10 nm, em: 590/10 nm (F560/590), after addition of 5 µL of 25 µg/mL resazurin (2.3 µg/mL final concentration) and after incubation for further 3 h at 37 °C in 5% CO2. The fluorescence intensity was measured using a Tecan M1000 Pro monochromator plate reader, using automatic gain calculation. […]
# Human whole blood was washed three times with 3 volumes of 0.9% NaCl and then resuspended in same to a concentration of 0.5 x 10^8 cells/mL, as determined by manual cell count in a Neubauer haemocytometer. […]
# Haemolysis was determined by measuring the supernatant absorbance at […] (OD405).
# (§1) The absorbance was measured using a Tecan M1000 Pro monochromator plate reader.
# HC10 and HC50 (concentration at 10% and 50% haemolysis, respectively) were calculated by curve fitting the inhibition values vs. log(concentration) using a sigmoidal dose-response function with variable fitting values for top, bottom and slope. […]
# (§2) Reading Plates - Haemolysis Clear 384w Corning 3680 […]
# human red blood cells = format: cell-based; conditions: red cells of human, 20 h
# Experimental: as §1
# (1 picture or pasted object on this page, not shown here)
# molecular beacon DNA = assay: DNA binding assay (molecular beacon melt curve); conditions: compound 0-5 μM, DNA 400 nM
# Source text: An attempt to characterize the mechanism of toxicity led to testing compounds’ interactions with DNA molecular beacons, which are short strands of DNA tagged with a donor–acceptor pair of fluorophores. The proximity between the fluorophores when the DNA strand is correctly folded results in no fluorescence from the donor; should a compound interfere with DNA folding, a change in the melting temperature will be observed.
# A molecular beacon DNA sequence [FAM] CGTATATATATATTTTTATATATATACG [TAM] (Eurofin Genomics, Germany) labeled with fluorescein–tetramethylrhodamine donor–acceptor pair was dissolved in nuclease-free water at 100 μM, aliquoted, and kept frozen at −20 °C.
# A working 2 μM DNA solution and compound dilution at 2 and 20 μM in hybridization buffer (10 mM Tris, 1 mM EDTA, 50 mM NaCl, 1.5 mM MgCl2 pH 8) was made. DNA was annealed by heating up to 95 °C on a heat block and allowing to cool down to room temperature. […]
# Measurements on the prepared plates were made on an Applied Biosystems 7500/7500 FastReal-Time PCR System (ThermoFisher, UK). A standard melt curve experiment was setup where temperature was ramped up from 15 to 90 °C at a 1% step gradient and fluorescence was monitored for filters 1 (FAM) and 3 (TAMRA). Fluorescence first derivatives against temperature were exported to Microsoft Excel and peak fitting was done using Origin 2022B.
# [2] = tested on: Cryptococcus neoformans H99 ATCC 208821; assay: CO-ADD antifungal assay, C. neoformans; format: cell-based; conditions: ATCC208821
# Experimental: Hit Confirmation of active compounds by whole cell growth inhibition assays was conducted as an 8-point dose response to determine the Minimum Inhibitory Concentration (MIC), in duplicate (n=2). The inhibition of growth is measured against those microorganisms that […]
# Included in the Hit Confirmation were 5 bacteria: Escherichia coli, Klebsiella pneumoniae, Acinetobacter baumannii, Pseudomonas aeruginosa and Staphylococcus aureus, and 2 fungi Candida albicans and Cryptococcus neoformans.
# In addition to determining MIC, active compounds were counter screened for cytotoxicity against a human embryonic kidney cell line, HEK293, by determining their CC50 value. The compounds were also screened for haemolysis of human red blood cells.
# Assay Parameters Bacteria Fungi HEK293 Haemolysis […]
# Duplicate (n=2) Duplicate (n=2) Duplicate (n=2) Duplicate (n=2)
# QC Control MIC: Control MIC: Control CC50: Control HC10:
# Non-Binding Non-Binding TC, 384-well Polypropylene […]
# Fungi strains were cultured for 3 days on Yeast Extract-Peptone Dextrose (YPD) agar at 30 °C. A yeast suspension of 1 x 10^6 to 5 x 10^6 CFU/mL (as determined by OD530) was prepared from five colonies. […]
# In both cases, the percentage of growth inhibition was calculated for each well, using the negative control (media only) and positive control (fungi without inhibitors) on the same plate. […]
# as §2
smiles,measurement,setting,value
"CC/C(=C(\c1ccccc1)c1ccc(OCCN(C)C)cc1)c1ccccc1 [tamoxifen, reference compound]",CC50 at 24 h,[1],5.3 to 15.5 µg/mL
same,CC50 at 20 h,in vitro,9 µg/mL
CC[C@H](C)[C@H](NC(=O)CN)C(=O)NCC(=O)N[C@@H](C)C(=O)N[C@H](C(=O)N[C@@H](CC(C)C)C(=O)N[C@@H](CCCCN)C(=O)N[C@H](C(=O)N[C@@H](CC(C)C)C(=O)N[C@H](C(=O)N[C@H](C(=O)NCC(=O)N[C@@H](CC(C)C)C(=O)N1CCC[C@H]1C(=O)N[C@@H](C)C(=O)N[C@@H](CC(C)C)C(=O)N[C@H](C(=O)N[C@@H](CO)C(=O)N[C@@H](Cc1c[nH]c2ccccc12)C(=O)N[C@H](C(=O)N[C@@H](CCCCN)C(=O)N[C@@H](CCCNC(=N)N)C(=O)N[C@@H](CCCCN)C(=O)N[C@@H](CCCNC(=N)N)C(=O)N[C@@H](CCC(N)=O)C(=O)N[C@@H](CCC(N)=O)C(N)=O)[C@@H](C)CC)[C@@H](C)CC)[C@@H](C)O)[C@@H](C)O)C(C)C)C(C)C [Melittin],HC10 (concentration at 10% haemolysis),human red blood cells,2.7 µg/mL
COc1cccc2c1C(=O)c1c(O)c3c(c(O)c1C2=O)C[C@@](O)(C(=O)CO)C[C@@H]3O[C@H]1C[C@H](N)[C@H](O)[C@H](C)O1 [doxorubicin],effect on DNA molecular beacon melting temperature,molecular beacon DNA,dose–response behavior
OC(Cn1cncn1)(Cn1cncn1)c1ccc(F)cc1F [Fluconazole],MIC,[2],8 µg/mL
